Test results: patent publication US11959083B2, “Immunosuppression-reverting oligonucleotides inhibiting the expression of CD39” (Secarna Pharmaceuticals GmbH & Co. KG, priority 2016, dated 2024)
l = locked nucleic acid (LNA); d = 2'-deoxy (DNA)

What was measured:
mCD39 mRNA = mCD39 mRNA knockdown efficacy screen in A20 cells (single dose, gymnotic delivery, QuantiGene Singleplex); format: cell-based, mouse; conditions: 10 μM, three days, normalized to HPRT1
Experimental: FIG. 14-1 and 14-2 show mCD39 mRNA knockdown efficacy of mCD39 antisense oligonucleotides in the murine cancer cell line A20 (mouse B cell lymphoma). A20 cells were treated with a single dose of 10 μM of the respective antisense oligonucleotide. As negative control, cells were treated with neg1, an antisense oligonucleotide having the sequence CGTTTAGGCTATGTACTT (SEQ ID NO:99). Residual mCD39 mRNA expression relative to untreated cells is depicted. Expression values were normalized to expression of the housekeeping gene HPRT1.
In order to analyze the efficacy of mCD39 antisense oligonucleotides with regard to the knockdown of mCD39 mRNA expression in a cancer cell line, A20 (mouse B cell lymphoma, ATCC) cells were treated with a single dose (concentration: 10 μM without addition of any transfection reagent; this process is called gymnotic delivery) of the respective antisense oligonucleotide as indicated in FIG. 14. As control, cells were treated with neg1, an antisense oligonucleotide having the sequence CGTTTAGGCTATGTACTT (SEQ ID NO:99). mCD39 and HPRT1 mRNA expression was analyzed after three days using the QuantiGene Singleplex assay (Affymetrix) and mCD39 expression values were normalized to HPRT1 expression values.

hCD39 mRNA [1] = experiment: IC50 determination / concentration-dependent hCD39 mRNA knockdown in HDLM-2 cells; format: cell-based, human; conditions: for mRNA inhibition: HDLM-2, 3 days, Table 12
Method in brief: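 Antisense oligonucleotides applied to HDLM-2 cells for 3 days, titrated 10 μM down to 4.5 nM. hCD39 mRNA normalized to HPRT1 and expressed as residual level relative to untreated cells (100); mean of triplicates, IC50 from concentration-response.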

hCD39 mRNA [2] = experiment: hCD39 mRNA knockdown efficacy screen in A-172 cells (single dose, gymnotic delivery, QuantiGene Singleplex); format: cell-based, human; conditions: 10 μM, 3 days, third screening round
Method in brief: (§1)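 Antisense oligonucleotides given once at 10 μM without transfection reagent (gymnotic) to HDLM-2 or A-172 cells for 3 days. hCD39 mRNA measured by QuantiGene Singleplex, normalized to HPRT1 and expressed relative to untreated cells; triplicate means.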

hCD39 mRNA [3] = experiment: hCD39 mRNA knockdown efficacy screen in HDLM-2 cells (single dose, gymnotic delivery, QuantiGene Singleplex); format: cell-based, human; conditions: 10 μM, 3 days, third screening round
Method in brief: as §1

Substance	Relative mCD39 mRNA expression (compared to non-treated cells) (mCD39 mRNA)	further results
+C*+A*+C*T*G*T*T*C*G*T*A*G*T*+C*+T*+C (antisense CACTGTTCGTAGTCTC; sugars from the 5' end l3 d10 l3, all phosphorothioate, methylation of C not given here) [A04014MR]	0.20	–
+G*+G*+T*G*G*C*A*C*T*G*T*T*C*G*+T*+A*+G (antisense GGTGGCACTGTTCGTAG; sugars from the 5' end l3 d11 l3, all phosphorothioate, methylation of C not given here) [A04030MR]	0.21	–
+C*+T*+G*T*T*C*G*T*A*G*T*C*+T*+C*+C (antisense CTGTTCGTAGTCTCC; sugars from the 5' end l3 d9 l3, all phosphorothioate, methylation of C not given here) [A04004MR]	0.17	–
+C*+C*+C*A*G*C*A*G*A*T*A*G*T*T*+A*+A*+T (antisense CCCAGCAGATAGTTAAT; sugars from the 5' end l3 d11 l3, all phosphorothioate, methylation of C not given here) [A04024MR]	0.35	–
+A*+G*+A*T*C*C*A*A*A*G*C*G*C*+C*+A*+A (antisense AGATCCAAAGCGCCAA; sugars from the 5' end l3 d10 l3, all phosphorothioate, methylation of C not given here) [A04013MR]	0.06	–
+A*+C*+A*T*T*T*C*T*T*A*C*T*C*+G*+T*+T (antisense ACATTTCTTACTCGTT; sugars from the 5' end l3 d10 l3, all phosphorothioate, methylation of C not given here) [A04022MR]	0.20	–
+C*+C*+T*A*G*T*T*G*T*G*T*A*T*+A*+C*+T (antisense CCTAGTTGTGTATACT; sugars from the 5' end l3 d10 l3, all phosphorothioate, methylation of C not given here) [A04021MR]	0.35	–
+A*+T*+C*C*A*A*A*G*C*G*C*C*A*A*+A*+G*+G (antisense ATCCAAAGCGCCAAAGG; sugars from the 5' end l3 d11 l3, all phosphorothioate, methylation of C not given here) [A04026MR]	0.04	–
+G*+C*+C*C*A*G*C*A*G*A*T*A*G*+T*+T*+A (antisense GCCCAGCAGATAGTTA; sugars from the 5' end l3 d10 l3, all phosphorothioate, methylation of C not given here) [A04012MR]	0.78	–
+G*+G*+T*A*C*T*T*C*T*C*C*T*T*+T*+A*+C (antisense GGTACTTCTCCTTTAC; sugars from the 5' end l3 d10 l3, all phosphorothioate, methylation of C not given here) [A04016MR]	0.17	–
+G*+G*+T*G*G*C*A*C*T*G*T*T*+C*+G*+T (antisense GGTGGCACTGTTCGT; sugars from the 5' end l3 d9 l3, all phosphorothioate, methylation of C not given here) [A04005MR]	0.15	–
+G*+C*+C*C*A*G*C*A*G*A*T*A*G*T*+T*+A*+A (antisense GCCCAGCAGATAGTTAA; sugars from the 5' end l3 d11 l3, all phosphorothioate, methylation of C not given here) [A04025MR]	0.35	–
+C*+A*+C*A*T*T*A*G*C*T*G*C*+A*+C*+G (antisense CACATTAGCTGCACG; sugars from the 5' end l3 d9 l3, all phosphorothioate, methylation of C not given here) [A04007MR]	0.07	–
+C*+G*+T*T*G*C*T*G*T*C*T*T*T*G*+A*+T*+C (antisense CGTTGCTGTCTTTGATC; sugars from the 5' end l3 d11 l3, all phosphorothioate, methylation of C not given here) [A04031MR]	0.14	–
+G*+A*+C*C*T*T*T*C*A*C*T*T*G*G*C*A*+T (antisense GACCTTTCACTTGGCAT; sugars from the 5' end l3 d13 l1, all phosphorothioate, methylation of C not given here) [A04023MR]	0.03	–
+C*+G*+T*T*G*C*T*G*T*C*T*T*T*+G*+A*+T (antisense CGTTGCTGTCTTTGAT; sugars from the 5' end l3 d10 l3, all phosphorothioate, methylation of C not given here) [A04018MR]	0.18	–
+T*+G*+T*T*C*G*T*A*G*T*C*T*C*C*+A*+G*+T (antisense TGTTCGTAGTCTCCAGT; sugars from the 5' end l3 d11 l3, all phosphorothioate, methylation of C not given here) [A04029MR]	0.11	–
+G*+T*+A*C*A*G*G*T*T*G*G*T*G*+T*+G*+A (antisense GTACAGGTTGGTGTGA; sugars from the 5' end l3 d10 l3, all phosphorothioate, methylation of C not given here) [A04009MR]	0.89	–
+A*+G*+T*T*A*T*A*G*C*C*T*T*G*+C*+A*+G (antisense AGTTATAGCCTTGCAG; sugars from the 5' end l3 d10 l3, all phosphorothioate, methylation of C not given here) [A04017MR]	0.07	–
+G*+C*+T*A*T*A*C*T*G*C*C*T*C*T*+T*+T*+C (antisense GCTATACTGCCTCTTTC; sugars from the 5' end l3 d11 l3, all phosphorothioate, methylation of C not given here) [A04032MR]	0.02	–
+G*+T*+T*A*T*A*G*C*C*T*T*G*+C*+A*+G (antisense GTTATAGCCTTGCAG; sugars from the 5' end l3 d9 l3, all phosphorothioate, methylation of C not given here) [A04006MR]	0.06	–
+A*+G*+C*A*T*T*T*T*G*G*C*A*T*+C*+A*+C (antisense AGCATTTTGGCATCAC; sugars from the 5' end l3 d10 l3, all phosphorothioate, methylation of C not given here) [A04020MR]	0.06	–
+T*+T*+C*G*T*A*G*T*C*T*C*C*A*G*+T*+G*+C (antisense TTCGTAGTCTCCAGTGC; sugars from the 5' end l3 d11 l3, all phosphorothioate, methylation of C not given here) [A04028MR]	0.02	–
+A*+G*+T*A*A*T*C*C*A*C*C*C*+A*+T*+A (antisense AGTAATCCACCCATA; sugars from the 5' end l3 d9 l3, all phosphorothioate, methylation of C not given here) [A04001MR]	0.02	–
+T*+A*+C*G*T*T*C*A*C*T*A*C*C*T*+T*+C*+T (antisense TACGTTCACTACCTTCT; sugars from the 5' end l3 d11 l3, all phosphorothioate, methylation of C not given here) [A04052H]	–	mRNA inhibition (hCD39 mRNA [1]; 0.45 nM): 24.52%; mRNA inhibition (hCD39 mRNA [1]; 1.3 nM): 25.80%; mRNA inhibition (hCD39 mRNA [1]; 4 nM): 9.03%; mRNA inhibition (hCD39 mRNA [1]; 12 nM): 31.25%; mRNA inhibition (hCD39 mRNA [1]; 40 nM): 49.21%; mRNA inhibition (hCD39 mRNA [1]; 110 nM): 75.30%; mRNA inhibition (hCD39 mRNA [1]; 330 nM): 88.35%; mRNA inhibition (hCD39 mRNA [1]; 1000 nM): 94.72%; IC50 (hCD39 mRNA [1]; HDLM-2 cells, hCD39 mRNA, 3 days, third screening round (Table 12)): 54 nM; Residual hCD39 mRNA expression relative to untreated cells (set as 1) (hCD39 mRNA [2]): 0.25; Residual hCD39 mRNA expression relative to untreated cells (set as 1) (hCD39 mRNA [3]): 0.00
